Source: paper PMC6473744, “Antiproliferative Activity of (-)-Rabdosiin Isolated from Ocimum sanctum L” (Medicines, 2019)
In brackets after ≈: the same amount, converted by molar mass.

Tests used:
[1] = system: MCF-7; experiment: MTT reduction assay, cytotoxicity; type: cell-based, human; settings: for IC50: Homo sapiens, MCF7
Procedure: Compounds were prepared at a stock solution of 10.0 mg/mL in DMSO and the extract at 20.0 mg/mL in DMSO. […] Cytotoxicity was evaluated by the MTT reduction assay, which determines the effect of treatment with an exogenously added agent on the viability of the cell population. […] Further, cells were incubated with the compounds for 72 h at 37 °C in a 5% CO2 incubator. The MTT reagent (Sigma-Aldrich, Darmstadt, Germany; 1 mg/mL in phosphate buffered saline (PBS); 100 μL/well) was added during the last 4 h of incubation. The formazan crystals formed were dissolved by adding 0.1 M HCl in 2-propanol (100 μL/well) and absorption was measured using an ELISA reader (Denley WeScan, Finland) at 545 nm with reference filter set at 690 nm. All cultures were set in triplicate, whereas cells incubated in complete medium or in medium containing the equivalent amount of DMSO, as well as cells incubated in the presence of doxorubicin (Sigma-Aldrich) were used as negative and positive controls, respectively.
All experiments were performed at least three times.

[2] = system: HCT-116; experiment: MTT reduction assay, cytotoxicity; type: cell-based; settings: Homo sapiens
Procedure: (§1) The cytotoxic activity of the compounds, as well as of the initial methanol extract, were tested against three human cancer cell lines: MCF-7 (breast; estrogen receptor positive (ER+), progesterone receptor (PR)+, and HER2 negative (-)), SKBR3 (breast; ER-, PR-, and HER2+), and HCT-116 (colon). All cell lines were maintained in RPMI-1640, supplemented with 10% heat-inactivated fetal bovine serum (FBS), 10 mM Hepes, 10 U/mL penicillin, 10 U/mL streptomycin, and […] (all from Lonza, Cologne, Germany) (thereafter referred to as complete medium) at 37 °C in a humidified 5% CO2 incubator.
(§2) Compounds were prepared at a stock solution of 10.0 mg/mL in DMSO and the extract at 20.0 mg/mL in DMSO. Prior to their use, they were diluted in plain RPMI-1640. Cytotoxicity was evaluated by the MTT reduction assay, which determines the effect of treatment with an exogenously added agent on the viability of the cell population. Briefly, cells were plated in 96-well plates (Greiner Bio-One GmbH, Frickenhausen, Germany; 5 × 10^3 cells/well) and incubated at 5% CO2 and 95% air at 37 °C for 24 h, in order to adhere. Further, cells were incubated with the compounds for 72 h at 37 °C in a 5% CO2 incubator. The MTT reagent (Sigma-Aldrich, Darmstadt, Germany; 1 mg/mL in phosphate buffered saline (PBS); 100 μL/well) was added during the last 4 h of incubation. The formazan crystals formed were dissolved by adding 0.1 M HCl in 2-propanol (100 μL/well) and absorption was measured using an ELISA reader (Denley WeScan, Finland) at 545 nm with reference filter set at 690 nm. All cultures were set in triplicate, whereas cells incubated in complete medium or in medium containing the equivalent amount of DMSO, as well as cells incubated in the presence of doxorubicin (Sigma-Aldrich) were used as negative and positive controls, respectively. The half maximal inhibitory concentration (IC50) was calculated according to the formula: 100(A0 − A)/A0 = 50, where A and A0 are optical densities of wells exposed to the compounds and control wells, respectively.
(§3) The compounds were tested at a concentration range of 200.0 to 6.25 μg/mL and the extract at 750.0 to 1.25 μg/mL. […] All experiments were performed at least three times.

[3] = system: SKBR3; experiment: MTT reduction assay, cytotoxicity; type: cell-based; settings: Homo sapiens, SK-BR-3
Procedure: as §1, §2, §3

[4] = system: HCT-116; experiment: Annexin V/PI flow cytometry analysis; type: cell-based, human; settings: HCT-116, 80 μg/mL, 72 h
Procedure: (§4) MCF-7, SKBR3 and HCT-116 cells were incubated with compound 6 and analyzed with flow cytometry following staining with annexin V and propidium iodide (PI). […] Cells were detached with 2 mM EDTA in Dulbecco’s PBS (DPBS), harvested, centrifuged in cold PBS (1500 rpm; 5 min), and stained with the Annexin V-FITC Apoptosis Detection Kit (BioLegend, Fell, Germany; cat# 640914), according to the manufacturers’ instructions. In brief, cells were resuspended in binding buffer, then annexin V-FITC (5 μL) and PI (10 μL; 0.03 μg/sample) were added, mixed, and incubated with the cells for 15 min in the dark at room temperature. The volume was adjusted to 500 μL with binding buffer and the cell suspension was immediately analyzed in a FACSCanto II (BD Biosciences, San Diego, CA, USA) using FACSDiva software (V7, BD Biosciences).

[5] = system: MCF-7; experiment: Annexin V/PI flow cytometry analysis; type: cell-based, human; settings: MCF-7, 80 μg/mL, 72 h
Procedure: as §4

[6] = system: SKBR3; experiment: Annexin V/PI flow cytometry analysis; type: cell-based, human; settings: SKBR3, 80 μg/mL, 72 h
Procedure: as §4

[7] = system: human peripheral blood mononuclear cells (PBMCs); experiment: Cytotoxic effect against PBMCs, annexin V/PI flow cytometry; type: cell-based; settings: 24 h
Procedure: as §4
Compound 6 was additionally assessed for its cytotoxicity against human peripheral blood mononuclear cells (PBMCs) isolated from healthy blood donors’ peripheral blood as previously described. Prior to blood draw, individuals gave their informed consent according to the regulations approved by the 2nd Peripheral Blood Transfusion Unit and Hemophiliac Centre, “Laikon” General Hospital Institutional Review Board, Athens, Greece. PBMCs were seeded in 24-well plates (5 × 10^5/mL; 2 mL/well) and exposed to 2 concentrations of compound 6: 80 μg/mL and 40 μg/mL. PBMCs were collected, stained as described in 2.5 and analyzed by flow cytometry.

[8] = system: MCF-7, SKBR3, and HCT-116 cells; experiment: Annexin V/PI flow cytometry, stated for all cell lines together; type: cell-based, human; settings: 72 h
Procedure: as §4

[9] = system: MCF-7, SKBR3, and HCT-116; experiment: MTT reduction assay, stated for all cell lines together; type: cell-based; settings: Homo sapiens; all cell lines tested, positive control
Procedure: as §1
Compounds were prepared at a stock solution of 10.0 mg/mL in DMSO and the extract at 20.0 mg/mL in DMSO. Prior to their use, they were diluted in plain RPMI-1640. Cytotoxicity was evaluated by the MTT reduction assay, which determines the effect of treatment with an exogenously added agent on the viability of the cell population. […] The formazan crystals formed were dissolved by adding 0.1 M HCl in 2-propanol (100 μL/well) and absorption was measured using an ELISA reader (Denley WeScan, Finland) at 545 nm with reference filter set at 690 nm. […] The half maximal inhibitory concentration (IC50) was calculated according to the formula: 100(A0 − A)/A0 = 50, where A and A0 are optical densities of wells exposed to the compounds and control wells, respectively. […]

[10] = MCF-7, 72 h exposure, mean ± SD of three experiments
[11] = 40 μg/mL, range over the cell lines

SMILES: O=C(O)[C@H]1O[C@@H](Oc2cc(O)c3c(=O)cc(-c4ccc(O)c(O)c4)oc3c2)[C@H](O)[C@@H](O)[C@@H]1O [Compound 9, luteolin 7-O-β-D-glucuronide]
- IC50 ± SD [1, 10]: 141 ± 1.41 µg/mL (≈ 305 µM)

SMILES: O=C(O)c1ccc(O)c(O)c1 [Compound 13, protocatechuic acid]
- IC50 [1, 10]: 140 ± 4.95 µg/mL

SMILES: O=C(O[C@H](Cc1ccc(O)c(O)c1)C(=O)O)[C@H]1[C@H](C(=O)O[C@H](Cc2ccc(O)c(O)c2)C(=O)O)[C@H](c2ccc(O)c(O)c2)[C@H]1c1ccc(O)c(O)c1 [Compound 7, shimobashiric acid C]
- IC50 ± SD [1, 10]: 142 ± 3.54 µg/mL (≈ 197 µM)

SMILES: O=C(O[C@H](Cc1ccc(O)c(O)c1)C(=O)O)C1=Cc2cc(O)c(O)cc2[C@@H](c2ccc(O)c(O)c2)[C@@H]1C(=O)O[C@H](Cc1ccc(O)c(O)c1)C(=O)O [Compound 6, (-)-rabdosiin]
- IC50 [1, 10]: 75 ± 2.12 µg/mL
- IC50 ([2]; HCT-116, 72 h exposure, mean ± SD of three experiments): 84 ± 7.78 µg/mL
- IC50 ([3]; SKBR3, 72 h exposure, mean ± SD of three experiments): 83 ± 3.54 µg/mL
- early apoptotic cells (annexin V+) [4]: 43.1%
- late apoptotic/necrotic cells (annexin V+/PI+) [4]: 10.2%
- early apoptotic cells (annexin V+) [5]: 44.9%
- late apoptotic/necrotic cells (annexin V+/PI+) [5]: 12.3%
- early apoptotic cells (annexin V+) [6]: 40.1%
- late apoptotic/necrotic cells (annexin V+/PI+) [6]: 9.1%
- early apoptotic PBMCs ([7]; donor 1, 40 μg/mL): 1.8%
- late apoptotic/necrotic PBMCs ([7]; donor 1, 40 μg/mL): 1.7%
- early apoptotic PBMCs ([7]; donor 1, 80 μg/mL): 2.8%
- late apoptotic/necrotic PBMCs ([7]; donor 1, 80 μg/mL): 3.0%
- early apoptotic PBMCs ([7]; donor 2, 40 μg/mL): 2.1%
- late apoptotic/necrotic PBMCs ([7]; donor 2, 40 μg/mL): 1.9%
- early apoptotic PBMCs ([7]; donor 2, 80 μg/mL): 4.3%
- late apoptotic/necrotic PBMCs ([7]; donor 2, 80 μg/mL): 3.1%
- early apoptotic cells [8, 11]: 13.5–20.1%
- late apoptotic/necrotic cells [8, 11]: 3.9–6.5%
- cells driven to apoptosis ([8]; 80 μg/mL, all cell lines): ca. 50%

SMILES: COc1cccc2c1C(=O)c1c(O)c3c(c(O)c1C2=O)C[C@@](O)(C(=O)CO)C[C@@H]3O[C@H]1C[C@H](N)[C@H](O)[C@H](C)O1 [Doxorubicin, reference compound]
- IC50 ([1]; MCF-7, positive control): 92 ± 7 nM
- IC50 ([2]; HCT-116, positive control): 192 ± 29 nM
- IC50 ([3]; SKBR3, positive control): 95 ± 8 nM
- IC50 [9]: ≤ 200 nM

SMILES: O=C(O)/C=C/c1ccc(O[C@@H]2O[C@H](CO)[C@@H](O)[C@H](O)[C@H]2O)cc1 [Compound 11, (E)-p-coumaroyl 4-O-β-D-glucoside]
- IC50 ± SD [1, 10]: 139 ± 7.78 µg/mL (≈ 426 µM)

SMILES: O=C(O)C(O)Cc1ccc(O)c(O)c1 (centres unmarked) [Compound 12, 3-(3,4-dihydroxyphenyl) lactic acid]
- IC50 [1, 10]: 140 ± 12 µg/mL
